In patent publication US11013735B2, “Specific Akt3 inhibitor and uses thereof” (Augusta University Research Institute, Inc., priority 2016, dated 2021):

Experiments:
[1] = tested on: CD8+ T cells; assay: Proliferation (level of VCT) of FACS-sorted CD8+ T cells by flow cytometry; assay type: cell-based, C57BL/6J(foxp3-GFP); details: anti-CD3, IL2 and anti-CD28, 72 hrs, live gated cells
Procedure: (§1) FACS-sorted nTregs, CD4+ and CD8+ T cells from C57BL/6J(foxp3-GFP) were plated on anti-CD3-coated plates and cultured in activation media (IL2 and anti-CD28) without inhibitors (Stimulated) and with inhibitors (JJ64-E) for 72 hrs. For negative control (Non-stimulated-NS) cells were left in media containing IL-2 for 72 hrs. After 72 hrs Proliferation (level of VCT) in live gated cells was measured by flow cytometry.

[2] = biological target: T1, Akt3 (Mus musculus, UniProt Q9WUA6); assay: Immunoblot of Akt3 phosphorylation (pAkt3) in activated nTregs; assay type: cell-based, WT C57BL/6J (foxp3-GFP) mice; details: nTregs on anti-CD3 with IL2 and anti-CD28, different concentrations of inhibitor, 72 hrs
T1 construct: nTreg cell lysates prepared on day 3 (72 hrs) of treatment were separated by SDS-PAGE and immunoblotted; endogenous in cells; host or cells: FACS-sorted primary nTregs from WT C57BL/6J (foxp3-GFP) mice
T1 sequence (Q9WUA6 whole entry): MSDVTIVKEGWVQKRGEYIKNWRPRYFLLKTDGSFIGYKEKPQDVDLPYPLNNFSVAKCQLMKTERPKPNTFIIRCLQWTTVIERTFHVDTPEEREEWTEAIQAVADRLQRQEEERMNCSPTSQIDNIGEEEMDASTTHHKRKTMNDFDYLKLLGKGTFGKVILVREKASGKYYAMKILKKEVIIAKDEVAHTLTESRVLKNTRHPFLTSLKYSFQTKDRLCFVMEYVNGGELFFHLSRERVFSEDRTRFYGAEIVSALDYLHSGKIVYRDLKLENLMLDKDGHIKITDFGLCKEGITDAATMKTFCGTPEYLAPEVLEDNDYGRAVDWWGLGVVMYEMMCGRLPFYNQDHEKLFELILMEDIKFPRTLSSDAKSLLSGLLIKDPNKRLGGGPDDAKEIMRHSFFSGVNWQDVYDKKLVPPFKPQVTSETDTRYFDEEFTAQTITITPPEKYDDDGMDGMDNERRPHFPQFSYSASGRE
Procedure: (§2) FACS-sorted natural regulatory T cells (nTregs), from WT C57BL/6J (foxp3-GFP) mice were plated on anti-CD3-coated plates and cultured in activation media (IL2 and anti-CD28) without inhibitors (Stimulated) and with different concentrations of inhibitor 4-[(6-nitroquinolin-4-yl)amino]-N-[4-(pyridin-4-ylamino)phenyl]benzamide (also referred to as JJ64-E) for 72 hrs. For negative control (Non-stimulated-NS) cells were left in media containing IL-2 for 72 hrs. nTreg cell lysates prepared on day 3 (72 hrs) of treatment were separated by SDS-PAGE and immunoblotted with specific antibodies (pAkt1) or pAkt3; actin was used as loading control.

[3] = tested on: CD4+ T cells; assay: Proliferation (level of VCT) of FACS-sorted CD4+ T cells by flow cytometry; assay type: cell-based, C57BL/6J(foxp3-GFP); details: anti-CD3, IL2 and anti-CD28, 72 hrs, live gated cells
Procedure: as §1

[4] = tested on: CD8 and other (FoxP3neg) CD4 T cells; assay: Percentage of CD4 and CD8 T cells in vivo in TC-1 tumor model; parameters: species or system WT C57BL/6 mice; details: TC-1 tumor-bearing mice, 5 mg/kg or 10 mg/kg i.p. everyday from day 10, day 15, spleen
Procedure: (§3) WT C57BL/6 4-6 weeks old female mice (n=5/group) were injected s.c. in the right flank with 7×10^4 TC-1 cells. Mice from appropriate groups were treated with either 5 mg/kg or 10 mg/kg of JJ64-E injected (i.p.) everyday starting on day 10 after tumor implantation throughout the experiment. All groups were euthanized on day 15 of TC-1 implantation. The percentage of CD4 and CD8 were analyzed in splenic CD4+ cells by flow cytometry.

[5] = tested on: Tregs (CD4+Foxp3+); assay: Percentage of Tregs in vivo in TC-1 tumor model; parameters: species or system WT C57BL/6J mice; details: TC-1 tumor-bearing mice, 5 mg/kg or 10 mg/kg i.p. every day from day 10, analysed day 15
Procedure: as §3, with “C57BL/6J” for “C57BL/6 4-6 weeks old female”, “(n=3/group)” for “(n=5/group)”, “every day” for “everyday”, “Tregs (CD4+Foxp3+) was” for “CD4 and CD8 were”, “analyzed” for “analyzed in splenic CD4+ cells”
(§4) Statistical significance was determined by one-way ANOVA with Tukey's multiple comparison test (*, p<0.05; **, p<0.01; ***, p<0.001).

[6] = biological target: T2, Akt1 (Mus musculus, UniProt P31750); assay: Immunoblot of Akt1 phosphorylation (pAkt1) in activated nTregs; assay type: cell-based, WT C57BL/6J (foxp3-GFP) mice; details: nTregs on anti-CD3 with IL2 and anti-CD28, different concentrations of inhibitor, 72 hrs
T2 construct: endogenous in cells; host or cells: FACS-sorted primary nTregs from WT C57BL/6J (foxp3-GFP) mice
T2 sequence (P31750 whole entry): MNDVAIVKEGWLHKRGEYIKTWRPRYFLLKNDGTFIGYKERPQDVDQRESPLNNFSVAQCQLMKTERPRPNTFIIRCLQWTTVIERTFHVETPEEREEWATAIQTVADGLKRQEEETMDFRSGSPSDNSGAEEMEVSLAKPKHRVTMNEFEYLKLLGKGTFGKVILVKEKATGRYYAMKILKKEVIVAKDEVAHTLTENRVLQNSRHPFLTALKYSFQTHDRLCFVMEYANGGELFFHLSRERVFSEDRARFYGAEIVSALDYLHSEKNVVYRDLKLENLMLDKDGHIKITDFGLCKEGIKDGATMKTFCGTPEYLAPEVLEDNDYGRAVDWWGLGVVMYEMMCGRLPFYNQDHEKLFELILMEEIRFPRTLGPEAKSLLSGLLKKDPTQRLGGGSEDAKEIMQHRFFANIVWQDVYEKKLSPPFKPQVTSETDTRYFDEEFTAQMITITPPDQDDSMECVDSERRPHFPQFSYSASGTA
Procedure: as §2

[7] = tested on: TC-1 tumor; assay: TC-1 tumor growth and survival, JJ64-E alone or with vaccine; assay type: in vivo, C57BL/6 mice; details: i.p. every day from day 6
Procedure: (§5) C57BL/6 mice (n=5/group) were injected s.c. in the right flank with 7×10^4 TC-1 cells. Mice from appropriate groups were injected weekly with vaccine (s.c.) or DMSO 5% as a control. Mice were also treated with vaccine (weekly) along with either 10 mg/kg or 20 mg/kg of JJ64-E injected (i.p.) every day starting on day 6 after tumor implantation throughout the experiment.
FIGS. 5B and 5C are bar diagrams showing average tumor volumes of mice for each group. FIG. 5D is a Kaplan-Meier plot of the overall survival. Statistical significance was determined by Log-rank (Mantel-Cox) test.
as §4

[8] = tested on: nTregs; assay: Proliferation (level of VCT) of FACS-sorted nTregs by flow cytometry; assay type: cell-based, C57BL/6J(foxp3-GFP); details: anti-CD3, IL2 and anti-CD28, 72 hrs, live gated cells
Procedure: as §1

[9] = tested on: TC-1 tumor; assay: TC-1 tumor growth and survival, JJ64-C alone or with vaccine; assay type: in vivo, C57BL/6 mice; details: i.p. every other day from day 6
Procedure: as §5, with “JJ64-C (or FIG. 7A or Formula 18)” for “JJ64-E”, “every other” for “every”
FIGS. 7C and 7D are bar diagrams representing average tumor volumes of mice for each group. FIG. 7E is a Kaplan-Meier plot of the overall survival. Statistical significance was determined by Log-rank (Mantel-Cox) test.
as §4

[10] = tested on: iTreg induction (CD4+FoxP3+ cells); assay: iTreg induction from CD4+FoxP3- cells (TGF-β), flow cytometry; assay type: cell-based; details: anti-CD3, IL2, anti-CD28, TGF-β, 72 hrs
Procedure: (§6) FACS-sorted CD4+FoxP3− cells were plated on anti-CD3-coated plates with soluble IL2 and anti-CD28 with TGF-β (induction) Cell were induced for iTregs with JJ64-B (FIG. 6A) without inhibitor (Induction-IND)) for 72 hrs. Cells were harvested and the frequency of CD4+FoxP3+ cells was measured by flow cytometry.
as §6, with “JJ64-C (JJ64 modified drug C or Formula 18) or” for “JJ64-B (FIG. 6A)”
as §6, with “JJ64-D (JJ64 modified drug D or FIG. 9A) or” for “JJ64-B (FIG. 6A)”

[11] = high dose as monotherapy (10 or 20 mg/kg tested)
[12] = lower dose combined with weekly vaccine s.c. (10 or 20 mg/kg tested)
[13] = high dose as monotherapy (10 or 20 mg/kg)
[14] = lower dose combined with weekly vaccine s.c. (10 or 20 mg/kg)

SMILES | CD8 T cell proliferation (level of VCT) [1] | Akt3 phosphorylation in Tregs (pAkt3 immunoblot) [2] | other CD4 T cell proliferation (level of VCT) [3] | CD8 T cells in vivo [4] | other (FoxP3neg) CD4 T cells in vivo [4] | percentage of Tregs (CD4+Foxp3+) in vivo [5] | Akt1 phosphorylation in Tregs (pAkt1 immunoblot) [6] | TC-1 tumor growth (tumor volume) [7, 11] | overall survival (Kaplan-Meier) [7, 11] | TC-1 tumor growth (tumor volume) [7, 12] | overall survival (Kaplan-Meier) [7, 12] | Treg proliferation (level of VCT) [8] | TC-1 tumor growth (tumor volume) [9, 13] | overall survival (Kaplan-Meier) [9, 13] | TC-1 tumor growth (tumor volume) [9, 14] | overall survival (Kaplan-Meier) [9, 14] | iTreg induction (frequency of CD4+FoxP3+ cells) [10]
O=C(Nc1ccc(Nc2ccncc2)cc1)c1ccc(Nc2ccnc3ccc([N+](=O)[O-])cc23)cc1 [4-[(6-nitroquinolin-4-yl)amino]-N-[4-(pyridin-4-ylamino)phenyl]benzamide] | sparing CD8 | inhibits Akt3 | sparing CD8 and other CD4 T cells | does not affect CD8 | does not affect CD8 and other (FoxP3neg) CD4 T cells | decreases Tregs in vivo | not Akt1 phosphorylation | inhibits TC-1 tumor growth | prolongs the survival | inhibits TC-1 tumor growth | prolongs the survival | selectively inhibits Treg proliferation |  |  |  |  | 
O=C(Nc1cccc(Nc2ccncc2)c1)c1cccc(Nc2ccnc3ccc(F)cc23)c1 [compound 18] |  |  |  |  |  |  |  |  |  |  |  |  | inhibits TC-1 tumor growth | prolongs the survival | inhibits TC-1 tumor growth | prolongs the survival | inhibits iTregs induction
